Reference: US20070154882A1, “Beta-polypeptides that inhibit cytomegalovirus infection” (priority 2005, published 2007)

How the values were obtained:
[1] = tested on: HCMV membrane fusion (nuclear localization of pp65) in NHDF cells; assay: pp65 translocation (virion content delivery) assay; type: cell-based; details: HCMV diluted with 100 µM beta-peptide; 4° C. 90 min, then 37° C. 35 min
Experimental: NHDF cells were grown on glass cover-slips in 12-well plates as above. The HCMV was diluted with 100 µM beta-peptide in SF-DMEM and cooled to 4° C. The treatment was then added to cooled cells, which were incubated at 4° C. for 90 min, assuring viral attachment but not entry. The cells were then transferred to 37° C. for 35 min. The cells were then fixed in 3% paraformaldehyde and immunostained for pp65 as described (Lopper, M.; Compton, T. (2004) in J. Virol. Vol. 78, pp. 8333-8341). Images were taken on the Nikon Eclipse TE2000-S with appropriate filters, using consistent exposure times.
The infectivity assays used in these Examples measures immediate early gene expression; immediate early (IE) proteins are the first viral proteins expressed in infected cells. Inhibition of viral gene expression could reflect interference at a variety of points in the virus life cycle such as inhibition of IE gene transcription or translation. A virion content delivery assay was performed to test whether the beta-peptides act at the viral entry stage, as they have been designed to do. Immediately upon membrane fusion, the phosphoprotein-rich tegument layer of the virus is released into the cytoplasm of the target cell. The pp65 protein, highly abundant in the virion tegument, diffuses rapidly to the nucleus after membrane fusion. […]

| Compound | Cytotoxicity, as indicated by P1 uptake (NHDF cells) | other results |
| --- | --- | --- |
| CNC(=O)C[C@H](C)NC(=O)COC(=O)[C@H]1CCCN1C(=O)CC(Cc1ccccc1)NC(C)=O (some centres unmarked) |  | melting point: 128 to 129 °C |
| CC(=O)NC1CCCC1C(=O)N[C@H](CC(=O)NC1CCCC1C(=O)NC[C@H](CC(C)C)C(=O)NC1CNCC1C(=O)NC1CNCC1C(=O)N[C@H](CC(=O)NC1CCCC1C(=O)NC[C@H](Cc1ccc(O)cc1)C(=O)NC1CNCC1C(=O)NC1CNCC1C(=O)N[C@H](CC(=O)NC1CNCC1C(N)=O)Cc1ccc2ccccc2c1)Cc1ccccc1)CC(C)C (some centres unmarked) [EPE-II-225] | Toxic |  |
| CC(=O)NC1CCCC1C(=O)N[C@H](CC(=O)NC1CCCC1C(=O)NC[C@H](CC(C)C)C(=O)NC1CNCC1C(=O)NC1CNCC1C(=O)N[C@H](CC(=O)NC1CCCC1C(=O)NC[C@H](Cc1ccc(O)cc1)C(=O)NC1CNCC1C(=O)NC1CNCC1C(=O)N[C@H](CC(=O)NC1CNCC1C(N)=O)Cc1cccc2ccccc12)Cc1ccccc1)CC(C)C (some centres unmarked) [EPE-II-227] | Toxic |  |
| CC(=O)NC1CCCC1C(=O)N[C@H](CC(=O)NC1CCCC1C(=O)NC[C@H](CC(C)C)C(=O)NC1CNCC1C(=O)NC1CNCC1C(=O)N[C@H](CC(=O)NC1CCCC1C(=O)NC[C@H](Cc1ccc(O)cc1)C(=O)NC1CNCC1C(=O)NC1CNCC1C(=O)N[C@H](CC(=O)NC1CNCC1C(N)=O)C(C)C)Cc1ccc2ccccc2c1)CC(C)C (some centres unmarked) [EPE-II-231] | Toxic |  |
| CC(=O)NC1CCCC1C(=O)N[C@H](CC(=O)NC1CCCC1C(=O)NC[C@H](CC(C)C)C(=O)NC1CNCC1C(=O)NC1CNCC1C(=O)N[C@H](CC(=O)NC1CCCC1C(=O)NC[C@H](Cc1ccc(O)cc1)C(=O)NC1CNCC1C(=O)NC1CNCC1C(=O)N[C@H](CC(=O)NC1CNCC1C(N)=O)C(C)C)Cc1cccc2ccccc12)CC(C)C (some centres unmarked) [EPE-II-233] | Toxic |  |
| CC(=O)NC[C@H](Cc1ccc(O)cc1)C(=O)NC1CCCC1C(=O)NC1CNCC1C(=O)NC1CNCC1C(=O)N[C@H](CC(=O)NC1CNCC1C(=O)NC1CNCC1C(=O)NC1CCCC1C(=O)NC[C@H](CC(C)C)C(=O)NC1CNCC1C(=O)NC1CCCC1C(=O)N[C@H](CC(=O)N[C@H](CC(N)=O)Cc1ccccc1)C(C)C)CC(C)C (some centres unmarked) [ERP-II-005] |  | disruption of cell membranes (human red blood cells): does not simply disrupt cell membranes; toxicity toward fibroblasts (NHDF cells): highly toxic |
| heparin |  | nuclear localization of pp65 [1]: eliminates pp65 accumulation in the nucleus |
